For assay [1], the target named is T1, human apelin receptor (Homo sapiens, UniProt P35414).
T1 sequence (P35414 1-380): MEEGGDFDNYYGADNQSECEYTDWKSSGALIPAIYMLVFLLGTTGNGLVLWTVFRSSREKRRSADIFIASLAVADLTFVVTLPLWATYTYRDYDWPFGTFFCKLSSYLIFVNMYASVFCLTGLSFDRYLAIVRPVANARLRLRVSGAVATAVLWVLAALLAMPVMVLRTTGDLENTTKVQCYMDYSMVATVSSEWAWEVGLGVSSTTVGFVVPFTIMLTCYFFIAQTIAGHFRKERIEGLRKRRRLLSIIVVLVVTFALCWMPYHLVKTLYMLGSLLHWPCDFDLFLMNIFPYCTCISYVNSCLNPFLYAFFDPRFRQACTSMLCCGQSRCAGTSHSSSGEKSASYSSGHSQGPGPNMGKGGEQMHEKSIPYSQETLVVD
Nature of the assay: β-arrestin recruitment assay (DiscoveRx), CHO-K1 cells. Type of assay: cell-based. More on the design: host or cells: CHO-K1. Background: Arrestin recruitment assays detect the binding of arrestin to an activated receptor.
Description: (§1) Inhibition of cAMP accumulation, β-arrestin recruitment, and receptor internalization assays were used to determine values of potency (pD2 [–log10 EC50]) and maximum response (EMAX). pD2 values were compared by using 1-way ANOVA with Tukey multiple comparison.
β-Arrestin ass a ys wer e conducted as previousl y described1.CHO- K1 cells artificially
ex pressing the human ap elin recepto r wer e seeded in C ell P lating medium into 96-well plates
3μmol/L ) wer e diluted in Cell Plating mediumand added to the cells for 90 minutes at 37 °C..
Detection reagents were then added fo ra 2- hour incubation at room temperature
followed b y chemiluminescence r eadin g. Respon ses measured in relatve li ght units wer e fitted
(§2) to 4 parameter logistic concentration response curves in GraphPad Prism 6 (La J olla, CA,
(§3) USA) and values o f pD 2 ( -log10 EC 50) and maximum response (EM AX ) w er e calcul at ed for each
(§4) used as the refer ence ago nists in each assa y.

For assay [2], the target named is T1, human apelin receptor. Nature of the assay: Inhibition of forskolin-induced cAMP accumulation (DiscoveRx), CHO-K1 cells. Type of assay: cell-based. Also noted: host or cells: CHO-K1. For orientation: cAMP levels reflect the balance of adenylyl cyclase and phosphodiesterase activity.
Assay [3] deals with T1, human apelin receptor. Description: Receptor internalization assay (DiscoveRx), U2OS cells. Type of assay: cell-based.
Description: as §1
Responses measured in r elative light units were fitted to 4 parameter logistic
concentration response curves in GraphPad Prism 6 (La J olla, CA, USA) and values of
potenc y,pD 2 ( -log10 EC 50 (where EC 50 is the concentration producing half maximal response) ),
and maximum response (EM AX ) w ere calculat ed fo r each compound.Data were subs equentl y
Respon ses measured in relatve li ght units wer e fitted
as §2, §3, §4
Internalisation a ssa ys w ere co nduct ed as previously des cribed1.U2OS cells artificially
ex pressing the human ap elin recepto r wer e seeded in Cell Plating medium in 96 -well plates and
incubated for 48 hours at 37 °C in 5% CO 2.
the cells for 3 hours at 37 °C. This was followed b y incubation with the detection reagents fo r
90 minutes at room temperature and luminescen ce readin g .D at a were an al y s ed as described
for the β -arrestin assa y .
Assay [4] concerns the target T1, human apelin receptor. Description: Competition binding of ELA-21 in normal and PAH human LV and RV homogenate. Also noted: host or cells: CHO-K1. The note with it: pooled homogenate, mean±SEM, n=3. As to the method: Experiments were conducted in homogenate of human ventricle or Chinese hamster ovary (CHO)-K1 cells expressing the human apelin receptor.
To investigate whether the affinit y of ELA peptides or the density of ELA binding sites is altered in human PAH competition binding experiments were repeated as described above using ELA-21 as the com peting li gand in LV and RV from pooled homogenate from six patients transplanted for PAH and LV and RV from six normal hearts as controls. Datafrom triplicate experiments were anal yzed usin g the iter ative non -linear curve fitting programs EBDA and LIGAND (KELL package, Biosoft, UK) to determine values of affinity (K D) and recepto r densit y (B M AX ). Values were compared for LV and RV between P AH and controls using Student’s 2- tailed t -test. […]

For assay [5], the target named is T1, human apelin receptor. Nature of the assay: Competition binding, [125I]apelin-13, homogenate of human left ventricle. The conditions noted are these: read-out: pKi in human LV (converted).
Description: (§5) For structure activity studies competition binding experiments were conductedin triplicate in
(§6) homogenate of pooled human LV from cardiom yopathy patients as previousl y described 1.
(§7) Homogenate of human LV wa s incubat ed for 90 min with 0.1nmol/L [Glp 65,Nle75, T yr 77]
[125 I] apelin-13 in assa y buffer (mmol/ L: Tris 50, MgCl2 5, pH 7.4, 22 °C), in the presence of
(§8) (0.5pmol/ L-10μmol/L) ( n=3 each). Non- specific binding was defined using 1μmol/L
(§9) Equilibrium was broken b y centrifugation (20,000g for 10 min, 4 °C). Pellets
(§10) were washed with Tris-H Cl buffer (50 mmol/ L, pH 7.4, 4 °C), re-centrifuged and bound
(§11) radioactivity in final pellets counted. Data from triplicate experiments wer e anal yz ed using th e
(§12) iterative non-linear curve fitting programs EBDA and LIGAND (KELL package, Biosoft, UK)
(§13) or GraphPad Prism6 and to derive values of affinit y (ex pressed as the –log 10 of the dissociation
In assay [6] the target is T1, human apelin receptor. Description: Competition binding in CHO-K1 cells expressing the human apelin receptor (Cerep). Also noted: host or cells: CHO-K1.
Description: Comptetition Binding Experiments
as §5, §6, §7, §8, §9, §10, §11, §12, §13
constant (pKi ±sem) ) and recepto r densit y (BM AX ± sem).The pK i and B M AX values for the thr ee
The target in assay [7] is T2, human apelin receptor expressed in CHO-K1 cells (human, UniProt P35414 1-380).
T2 construct: human apelin receptor (APJ) expressed in CHO-K1 cells; the Data Supplement Methods may tell; Used here also as the target of the cell-based assays, whose cells the text calls only 'cells expressing the apelin receptor'; also called APJ; source: Chinese hamster ovary (CHO)-K1 cells expressing the human apelin receptor
T2 sequence (looked up): T1 sequence (P35414 1-380)
Description: radioligand binding; competition binding in CHO-K1 cells expressing the human apelin receptor. The conditions noted are these: one partner purified.

The target of assay [8] is T2, human apelin receptor expressed in …. Description: cell-based or functional assay.

The values that follow come from PMC5363837 (Circulation, 2017).

Bridge positions count the residues as written; N and C are the ends. Ends that are not written are not given here. Peptide text beside a SMILES is read from it.

Consider `CSCC[C@H](NC(=O)[C@@H]1CSSC[C@H](NC(=O)[C@H](CC(N)=O)NC(=O)[C@H](Cc2c[nH]cn2)NC(=O)[C@H](CCCCN)NC(=O)[C@H](CCCNC(=N)N)NC(=O)[C@@H](N)CC(C)C)C(=O)N[C@@H](CC(C)C)C(=O)N[C@@H](CCC(N)=O)C(=O)N[C@@H](CCCNC(=N)N)C(=O)N[C@@H](CCCNC(=N)N)C(=O)N1)C(=O)N1CCC[C@H]1C(=O)N[C@@H](CC(C)C)C(=O)N[C@@H](Cc1c[nH]cn1)C(=O)N[C@@H](CO)C(=O)N[C@@H](CCCNC(=N)N)C(=O)N[C@H](C(=O)N1CCC[C@H]1C(=O)N[C@@H](Cc1ccccc1)C(=O)N1CCC[C@H]1C(=O)O)C(C)C` [ELA-21], for which the Emax on human apelin receptor [1] (CHO-K1) amounted to 102 ± 1%; at human apelin receptor [2] (CHO-K1) it was 101 ± 1%; on human apelin receptor [3] (U2OS), 96 ± 2%. The EC50 on human apelin receptor [1] (read-out: β-Arrestin pD2 (converted)) is 0.132 nM; at human apelin receptor [2] (read-out: cAMP pD2 (converted)) it was 0.372 nM; at human apelin receptor [3] (U2OS cells, 3 hours, 37°C, mean±SEM, n=3-5 assays, 2-6 replicates, read-out: Internalization pD2 (converted)), 0.282 nM. In addition, the Ki was 0.347 nM on human apelin receptor [4] (PAH human left ventricle, read-out: pKi, LV PAH (converted)); 0.501 nM on human apelin receptor [4] (PAH human right ventricle, read-out: pKi, RV PAH (converted)); 0.49 nM at human apelin receptor [4] (normal human left ventricle, read-out: pKi, LV normal (converted)); 1.05 nM on human apelin receptor [4] (normal human right ventricle, read-out: pKi, RV normal (converted)); 3.02 nM on human apelin receptor [5].

`CSCC[C@@H]1NC(=O)[C@@H](N)CSSC[C@@H](C(=O)N[C@@H](CCCNC(=N)N)C(=O)N[C@H](C(=O)N2CCC[C@H]2C(=O)N[C@@H](Cc2ccccc2)C(=O)N2CCC[C@H]2C(=O)O)C(C)C)NC(=O)[C@H](Cc2c[nH]cn2)NC(=O)[C@H](CC(C)C)NC(=O)[C@@H]2CCCN2C1=O` [cyclo[1–6]ELA-11] (HELM PEPTIDE1{C.M.P.L.H.C.R.V.P.F.P}$PEPTIDE1,PEPTIDE1,1:R3-6:R3$$$V2.0; N-terminus and C-terminus assumed): at human apelin receptor [6], the “fold drop in affinity versus ELA-32, ELA-21 and ELA-14” value is 100 fold.

B1: cyclo[1–6]ELA-11 (peptide)
chain: CMPLHCRVPFP
modifications: disulfide 1-6
B1 displayed a pKi in assay [7] of 7.27. In assay [8], the “cAMP assay, pD2 (-log10 EC50)” value was found to be 9.42 and the “β-arrestin recruitment assay, pD2 (-log10 EC50)” value turned out to be 7.67.

The Emax is the size of the effect at its maximum, as opposed to the concentration needed. One may read the pKi as the negative decadic logarithm of the Ki, by convention in mol/L. A high value points to a small Ki.
